What was measured:
[1] = target: T1, PI3Kα (Homo sapiens, UniProt P42336); experiment: PI3K Alpha Leadseeker SPA Assay; type: biochemical; conditions: His-p110/p85 PI3K alpha, SPA imaging beads, P33-ATP; read-out: IC50 against PI3Kα
T1 construct: His
Experimental: PI3K Alpha Leadseeker SPA Assay
Compounds of the present invention were tested according to the following assays and found as inhibitors of PI3 kinases, particularly PI3Kα. The activities (IC50) range from 1 to 500 μM against PI3Kα.
SPA imaging beads are microspheres containing scintillant which emit light in the red region of the visible spectrum. As a result, these beads are ideally suited to use with a CCD imager such as the Viewlux. The Leadseeker beads used in this system are polystyrene beads that have been coupled with polyethyleneimine. When added to the assay mixture, the beads absorb both the substrate (PIP2) and product (PIP3). Adsorbed P^33-PIP3 will cause an increase in signal, measured as ADUs (analog to digital units). This protocol details the use of the PEI-PS Leadseeker beads for assays using His-p110/p85 PI3K alpha.
Solid compounds are typically plated with 0.1 μl of 100% DMSO in all wells (except column 6 and 18) of a 384-well, flat bottom, low volume plate (Greiner 784075). […]
The assay buffer contains MOPS (pH 6.5), CHAPS, and DTT. […] The signal is determined using a Viewlux detector and is then imported into curve fitting software (Activity Base) for construction of concentration response curves. […]

[2] = tested on: Class I PI3-kinases; conditions: wortmannin, background section; read-out: IC50 against each of the various Class I PI3-kinases; cited from earlier work

T1 sequence (P42336 whole entry): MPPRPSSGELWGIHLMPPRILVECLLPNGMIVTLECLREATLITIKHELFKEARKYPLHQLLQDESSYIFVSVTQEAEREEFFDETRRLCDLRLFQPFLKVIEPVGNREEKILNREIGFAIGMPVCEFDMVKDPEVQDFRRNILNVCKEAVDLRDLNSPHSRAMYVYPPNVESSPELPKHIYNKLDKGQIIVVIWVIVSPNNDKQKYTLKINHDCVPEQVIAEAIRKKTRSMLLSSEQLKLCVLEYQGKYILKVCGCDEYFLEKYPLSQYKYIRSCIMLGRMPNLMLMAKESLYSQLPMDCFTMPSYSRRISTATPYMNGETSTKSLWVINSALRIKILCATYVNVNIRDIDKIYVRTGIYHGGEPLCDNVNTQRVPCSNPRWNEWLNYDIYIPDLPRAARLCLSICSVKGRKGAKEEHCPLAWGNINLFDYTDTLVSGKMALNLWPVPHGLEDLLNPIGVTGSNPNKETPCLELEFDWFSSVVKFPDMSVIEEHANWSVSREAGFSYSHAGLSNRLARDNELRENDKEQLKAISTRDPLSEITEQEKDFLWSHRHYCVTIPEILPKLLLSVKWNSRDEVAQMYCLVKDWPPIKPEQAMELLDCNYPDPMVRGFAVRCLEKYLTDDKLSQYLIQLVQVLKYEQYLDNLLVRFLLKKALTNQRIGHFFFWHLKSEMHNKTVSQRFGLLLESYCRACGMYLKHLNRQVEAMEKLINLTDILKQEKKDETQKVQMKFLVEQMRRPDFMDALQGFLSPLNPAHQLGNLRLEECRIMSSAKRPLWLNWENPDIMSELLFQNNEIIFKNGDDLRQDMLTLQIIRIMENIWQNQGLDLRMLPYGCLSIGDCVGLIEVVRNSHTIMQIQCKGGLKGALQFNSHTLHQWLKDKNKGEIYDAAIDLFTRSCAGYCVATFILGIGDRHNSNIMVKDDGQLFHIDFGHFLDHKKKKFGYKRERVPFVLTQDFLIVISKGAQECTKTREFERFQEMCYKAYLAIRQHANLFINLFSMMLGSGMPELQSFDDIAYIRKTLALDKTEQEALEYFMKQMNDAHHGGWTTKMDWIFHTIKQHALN
T1 sequence (P27986 whole entry partner): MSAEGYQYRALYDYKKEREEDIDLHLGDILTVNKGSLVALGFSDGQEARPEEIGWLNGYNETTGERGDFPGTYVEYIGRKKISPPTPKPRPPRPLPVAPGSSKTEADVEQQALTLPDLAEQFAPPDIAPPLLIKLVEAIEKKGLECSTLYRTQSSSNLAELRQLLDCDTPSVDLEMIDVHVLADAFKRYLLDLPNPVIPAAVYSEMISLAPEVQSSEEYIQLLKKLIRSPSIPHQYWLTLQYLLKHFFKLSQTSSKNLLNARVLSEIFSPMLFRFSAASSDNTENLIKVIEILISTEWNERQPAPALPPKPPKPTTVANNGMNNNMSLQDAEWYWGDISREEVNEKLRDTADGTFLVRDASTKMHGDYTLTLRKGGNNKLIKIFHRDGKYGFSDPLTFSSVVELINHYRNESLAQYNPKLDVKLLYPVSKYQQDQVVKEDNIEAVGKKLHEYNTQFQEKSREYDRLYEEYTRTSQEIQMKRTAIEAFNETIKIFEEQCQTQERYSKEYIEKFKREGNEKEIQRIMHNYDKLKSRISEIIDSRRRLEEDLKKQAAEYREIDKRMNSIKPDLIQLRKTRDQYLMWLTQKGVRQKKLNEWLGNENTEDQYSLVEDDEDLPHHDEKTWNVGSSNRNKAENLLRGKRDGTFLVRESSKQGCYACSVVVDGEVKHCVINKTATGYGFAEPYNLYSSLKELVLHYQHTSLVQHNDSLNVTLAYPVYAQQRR

IC50 [1] | Structure (SMILES) | IC50 [2]
1000 nM | O=C1NC(=O)/C(=C/c2ccc3nccc(-c4ccncc4)c3c2)S1 [Example 1, (5Z)-5-{[4-(4-pyridinyl)-6-quinolinyl]methylidene}-1,3-thiazolidine-2,4-dione] | 
 | COC[C@H]1OC(=O)c2coc3c2[C@@]1(C)C1=C(C3=O)[C@@H]2CCC(=O)[C@@]2(C)C[C@H]1OC(C)=O [wortmannin] | 1 to 10 nM

— patent publication US20080255115A1, “THIAZOLIDINEDIONE DERIVATIVES AS PI3 KINASE INHIBITORS” (priority 2007, published 2008)
